Measurements taken from publication PMC6130598, “Isolation, characterization, and in silico, in vitro and in vivo antiulcer studies of isoimperatorin crystallized from Ostericum koreanum” (Pharmaceutical Biology, 2016).

Target: jack bean urease (Canavalia ensiformis, UniProt P07374)
Assay: colorimetric urease inhibition assay (phenol/hypochlorite ammonia detection, […] nm)
Assay type: biochemical

Chain of jack bean urease (P07374 whole entry, looked up): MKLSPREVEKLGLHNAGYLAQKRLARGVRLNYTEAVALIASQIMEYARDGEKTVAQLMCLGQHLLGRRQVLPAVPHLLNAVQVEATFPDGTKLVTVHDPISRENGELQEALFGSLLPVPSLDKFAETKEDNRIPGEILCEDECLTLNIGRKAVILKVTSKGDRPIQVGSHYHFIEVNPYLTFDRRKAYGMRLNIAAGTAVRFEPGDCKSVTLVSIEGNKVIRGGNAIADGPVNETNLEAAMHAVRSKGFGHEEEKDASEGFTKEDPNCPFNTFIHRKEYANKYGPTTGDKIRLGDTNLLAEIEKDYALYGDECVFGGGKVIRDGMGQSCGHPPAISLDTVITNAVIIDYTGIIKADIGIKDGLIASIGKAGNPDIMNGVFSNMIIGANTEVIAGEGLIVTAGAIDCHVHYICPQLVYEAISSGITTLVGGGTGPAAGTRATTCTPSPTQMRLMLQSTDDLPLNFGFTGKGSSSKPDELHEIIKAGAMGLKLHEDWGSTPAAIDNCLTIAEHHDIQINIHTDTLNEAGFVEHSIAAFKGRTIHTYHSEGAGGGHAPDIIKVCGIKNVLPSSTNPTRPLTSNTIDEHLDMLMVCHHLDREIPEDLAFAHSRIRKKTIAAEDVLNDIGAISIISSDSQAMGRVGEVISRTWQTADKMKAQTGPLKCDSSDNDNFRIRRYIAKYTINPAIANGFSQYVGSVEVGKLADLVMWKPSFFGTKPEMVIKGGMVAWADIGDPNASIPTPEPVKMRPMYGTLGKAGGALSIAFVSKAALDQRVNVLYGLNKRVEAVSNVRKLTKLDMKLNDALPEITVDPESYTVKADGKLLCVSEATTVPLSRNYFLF

| Structure (SMILES) | IC50 [µM] |
| --- | --- |
| CC(C)=CCOc1c2ccoc2cc2oc(=O)ccc12 [isoimperatorin] | 36.4 |
| NC(N)=S [thiourea] | 33.6 |
